Where a name gives a salt, the structure may show the parent alone.
Assays:
[1] = target: T1, NLRP3 (Homo sapiens, UniProt Q96P20); assay: THP-1 cells pyroptosis assay (LPS-primed, nigericin-triggered, resazurin readout); type: cell-based; set-up: Seed THP-1 cells (25,000 cells/well) containing 1.0 μg/ml LPS in 40 μl of RPMI medium; host or cells: THP-1 cells, LPS-primed, nigericin-triggered; conditions: NLRP3 inhibitory activity in THP-1 cells, 1.0 μg/ml LPS, 5 μM nigericin
Procedure: THP-1 cells (ATCC #TIB-202) were grown in RPMI containing L-glutamine (Gibco #11835) supplemented with ImM sodium pyruvate (Sigma #S8636) and penicillin (100 units/ml)/streptomycin (0.1 mg/ml) (Sigma #P4333) in 10% Fetal Bovine Serum (FBS) (Sigma #F0804). The cells were routinely passaged and grown to confluency ([…]). On the day of the experiment, THP-1 cells were harvested and resuspended into RPMI medium (without FBS). The cells were then counted and viability (>90%) checked by Trypan blue (Sigma #T8154). Appropriate dilutions were made to give a concentration of 625,000 cells/ml. To this diluted cell solution was added LPS (Sigma #L4524) to give a 1 μg/ml Final Assay Concentration (FAC). […] of the final preparation was aliquoted into each well of a 96-well plate. The plate thus prepared was used for compound screening.
The following method step-by-step assay was followed for compound screening. • 1. Seed THP-1 cells (25,000 cells/well) containing 1.0 μg/ml LPS in 40 μl of RPMI medium (without FBS) in 96-well, black walled, clear bottom cell culture plates coated with poly-D-lysine (VWR #734-0317) • 2. Add 5 μl compound (8 points half-log dilution, with 10 μM top dose) or vehicle (DMSO 0.1% FAC) to the appropriate wells • 3. Incubate for 3 hrs at 37° C. in 5% CO2 • 4. Add 5 μl nigericin (Sigma #N7143) (FAC 5 μM) to all wells • 5. Incubate for 1 hr at 37° C. and 5% CO2 • 6. At the end of the incubation period, spin plates at 300×g for 3 mins and remove supernatant • 7. Then add 50 μl of resazurin (Sigma #R7017) (FAC 100 μM resazurin in RPMI medium without FBS) and incubate plates for a further 1-2 hrs at 37° C. and 5% CO2 • 8. Plates were read in an Envision reader at Ex 560 nm and Em 590 nm • 9. IC50 data is fitted to a non-linear regression equation (log inhibitor vs response-variable slope 4-parameters)

[2] = target: T1, NLRP3; assay: Human whole blood IL-1β release assay (LPS + nigericin, AlphaLisa); type: cell-based; set-up: Plate out 80 μl of whole blood containing 1 μg/ml of LPS in 96-well, clear bottom cell culture plate; from tissue; host or cells: human whole blood from healthy donors (Li-heparin); conditions: NLRP3 inhibitory activity in human whole blood, 1 μg/ml LPS, 10 μM nigericin, read-out: HWB IC50
Procedure: For systemic delivery, the ability to inhibit NLRP3 when the compounds are present within the bloodstream is of great importance. For this reason, the NLRP3 inhibitory activity of a number of compounds in human whole blood was investigated in accordance with the following protocol.
Human whole blood in Li-heparin tubes was obtained from healthy donors from a volunteer donor panel. • 1. Plate out 80 μl of whole blood containing 1 μg/ml of LPS in 96-well, clear bottom cell culture plate (Corning #3585) • 2. Add 10 μl compound (8 points half-log dilution with 10 μM top dose) or vehicle (DMSO 0.1% FAC) to the appropriate wells • 3. Incubate for 3 hrs at 37° C., 5% CO2 • 4. Add 10 μl nigericin (Sigma #N7143) (10 μM FAC) to all wells • 5. Incubate for 1 hr at 37° C., 5% CO2 • 6. At the end of the incubation period, spin plates at 300×g for 5 mins to pellet cells and remove 20 μl of supernatant and add to 96-well v-bottom plates for IL-1β analysis (note: these plates containing the supernatants can be stored at −80° C. to be analysed at a later date) • 7. IL-1β was measured according to the manufacturer protocol (Perkin Elmer-AlphaLisa IL-1 Kit AL220F-5000) • 8. IC50 data is fitted to a non-linear regression equation (log inhibitor vs response-variable slope 4-parameters)

T1 sequence (Q96P20 whole entry): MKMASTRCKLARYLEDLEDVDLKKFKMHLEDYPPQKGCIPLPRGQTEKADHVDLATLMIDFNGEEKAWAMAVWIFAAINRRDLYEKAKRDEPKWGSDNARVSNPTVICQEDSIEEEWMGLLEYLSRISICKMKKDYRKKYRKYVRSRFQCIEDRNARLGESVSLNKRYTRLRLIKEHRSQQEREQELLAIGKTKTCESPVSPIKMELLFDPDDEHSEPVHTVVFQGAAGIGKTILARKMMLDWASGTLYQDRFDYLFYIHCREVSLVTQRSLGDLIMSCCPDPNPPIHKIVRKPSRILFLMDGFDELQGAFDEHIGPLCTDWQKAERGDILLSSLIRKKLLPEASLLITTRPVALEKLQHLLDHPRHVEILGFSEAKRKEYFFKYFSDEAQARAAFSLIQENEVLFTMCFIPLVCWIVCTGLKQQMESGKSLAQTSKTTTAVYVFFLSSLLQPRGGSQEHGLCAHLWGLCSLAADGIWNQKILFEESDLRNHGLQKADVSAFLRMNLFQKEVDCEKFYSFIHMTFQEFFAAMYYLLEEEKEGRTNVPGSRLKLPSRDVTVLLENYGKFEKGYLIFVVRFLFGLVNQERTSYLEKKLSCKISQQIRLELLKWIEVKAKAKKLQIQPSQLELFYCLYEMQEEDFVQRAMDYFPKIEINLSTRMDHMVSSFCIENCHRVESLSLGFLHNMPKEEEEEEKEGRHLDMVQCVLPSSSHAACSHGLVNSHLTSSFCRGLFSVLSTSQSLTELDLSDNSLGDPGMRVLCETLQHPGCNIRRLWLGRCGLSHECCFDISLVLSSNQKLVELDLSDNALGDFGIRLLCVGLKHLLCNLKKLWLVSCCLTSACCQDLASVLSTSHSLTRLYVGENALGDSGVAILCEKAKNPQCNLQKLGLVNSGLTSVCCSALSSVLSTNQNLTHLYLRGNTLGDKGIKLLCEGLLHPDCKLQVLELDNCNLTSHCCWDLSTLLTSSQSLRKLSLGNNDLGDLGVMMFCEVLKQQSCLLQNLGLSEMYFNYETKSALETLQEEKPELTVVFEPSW

SMILES | IC50 [1] [µM] | IC50 [2] [µM]
COC(=O)c1ccc(CS(=O)(=O)NC(=O)Nc2c3c(cc4c2CCC4)CCC3)cc1 [Example 9, Methyl 4-((N-((1,2,3,5,6,7-hexahydro-s-indacen-4-yl)carbamoyl)sulfamoyl)methyl)benzoate, Sodium Salt] | ≤ 1 | ≤ 5
O=C(Nc1c2c(cc3c1CCC3)CCC2)NS(=O)(=O)Cc1ccc(C(F)(F)F)cc1 [Example 10, N-((1,2,3,5,6,7-Hexahydro-s-indacen-4-yl)carbamoyl)-1-(4-(trifluoromethyl)phenyl)methanesulfonamide, Sodium Salt] | ≤ 1 | 5 to 7.5
COc1cccc(CS(=O)(=O)NC(=O)Nc2c3c(cc4c2CCC4)CCC3)c1 [Example 11, N-((1,2,3,5,6,7-Hexahydro-s-indacen-4-yl)carbamoyl)-1-(3-methoxyphenyl)methanesulfonamide, Sodium Salt] | ≤ 1 | 7.5 to 10
O=C(Nc1c2c(cc3c1CCC3)CCC2)NS(=O)(=O)Cc1ccc(Cl)cc1F [Example 12, 1-(4-Chloro-2-fluorophenyl)-N-((1,2,3,5,6,7-hexahydro-s-indacen-4-yl)carbamoyl)methanesulfonamide, Sodium Salt] | ≤ 1 | > 10
O=C(Nc1c2c(cc3c1CCC3)CCC2)NS(=O)(=O)Cc1ccc(Cl)c(F)c1 [Example 13, 1-(4-Chloro-3-fluorophenyl)-N-((1,2,3,5,6,7-hexahydro-s-indacen-4-yl)carbamoyl)methanesulfonamide, Sodium Salt] | ≤ 1 | > 10
Cc1ccc(CS(=O)(=O)NC(=O)Nc2c3c(cc4c2CCC4)CCC3)cc1 [Example 14, N-((1,2,3,5,6,7-Hexahydro-s-indacen-4-yl)carbamoyl)-1-(p-tolyl)methanesulfonamide, Sodium Salt] | ≤ 1 | 5 to 7.5
O=C(Nc1c2c(cc3c1CCC3)CCC2)NS(=O)(=O)Cc1ccccc1Cl [Example 15, 1-(2-Chlorophenyl)-N-((1,2,3,5,6,7-hexahydro-s-indacen-4-yl)carbamoyl)methanesulfonamide, Sodium Salt] | ≤ 1 | > 10
O=C(Nc1c2c(cc3c1CCC3)CCC2)NS(=O)(=O)Cc1cccc(Br)c1 [Example 19, 1-(3-Bromophenyl)-N-((1,2,3,5,6,7-hexahydro-s-indacen-4-yl)carbamoyl)methanesulfonamide, Sodium Salt] | ≤ 1 | > 10
Cc1cccc(CS(=O)(=O)NC(=O)Nc2c3c(cc4c2CCC4)CCC3)c1 [Example 20, N-((1,2,3,5,6,7-Hexahydro-s-indacen-4-yl)carbamoyl)-1-(m-tolyl)methanesulfonamide, Sodium Salt] | ≤ 1 | 5 to 7.5
[N-]=[N+]=NCCCS(=O)(=O)NC(=O)Nc1c2c(cc3c1CCC3)CCC2 [Example 21, 3-Azido-N-((1,2,3,5,6,7-hexahydro-s-indacen-4-yl)carbamoyl) propane-1-sulfonamide, Potassium Salt] | ≤ 1 | ≤ 5
CC(c1ccccc1)S(=O)(=O)NC(=O)Nc1c2c(cc3c1CCC3)CCC2 (stereo not drawn) [Example 39, N-((1,2,3,5,6,7-Hexahydro-s-indacen-4-yl)carbamoyl)-1-phenylethanesulfonamide] | ≤ 1 | 7.5 to 10
O=C(Nc1c2c(cc3c1CCC3)CCC2)NS(=O)(=O)CCc1ccccc1 [Example 40, N-((1,2,3,5,6,7-Hexahydro-s-indacen-4-yl)carbamoyl)-2-phenylethanesulfonamide] | ≤ 1 | > 10

— patent US11518739B2, “Sulfonamide carboxamide compounds” (Inflazome Limited, priority 2017, dated 2022)
